This is an account of results in ChEMBL document CHEMBL1135015, “Silanediol-based inhibitor of thermolysin” (Bioorg Med Chem Lett, 2002).

The assay deals with T1, Thermolysin (Bacillus thermoproteolyticus, UniProt P00800).
T1 sequence (P00800 whole entry): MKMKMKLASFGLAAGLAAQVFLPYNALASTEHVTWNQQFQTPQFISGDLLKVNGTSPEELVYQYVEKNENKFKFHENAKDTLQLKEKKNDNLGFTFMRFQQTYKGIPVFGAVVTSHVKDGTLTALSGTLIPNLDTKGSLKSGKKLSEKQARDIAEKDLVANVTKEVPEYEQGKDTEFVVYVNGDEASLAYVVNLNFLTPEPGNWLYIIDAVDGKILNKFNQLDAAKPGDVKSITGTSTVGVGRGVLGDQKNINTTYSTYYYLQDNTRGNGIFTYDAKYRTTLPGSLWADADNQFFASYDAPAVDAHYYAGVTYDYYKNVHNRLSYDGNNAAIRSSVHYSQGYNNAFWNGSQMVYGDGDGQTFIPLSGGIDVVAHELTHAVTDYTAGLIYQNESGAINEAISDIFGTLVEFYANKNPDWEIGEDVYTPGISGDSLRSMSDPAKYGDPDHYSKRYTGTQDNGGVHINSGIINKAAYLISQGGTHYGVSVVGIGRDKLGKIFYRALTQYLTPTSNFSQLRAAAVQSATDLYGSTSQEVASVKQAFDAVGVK
The assay can be described thus: Competitive inhibition of thermolysin evaluated using the substrate FAGLA (Sigma); Competitive binding observed.

Regarding `CC(C)C[C@H](C[Si](O)(O)CNC(=O)CCc1ccccc1)C(=O)N[C@@H](CC(C)C)C(=O)O`, the affinity corresponds to a Ki of 41 nM.
The same measure for `CC(C)C[C@@H](CO)C[Si](CN)(c1ccccc1)c1ccccc1`: 41 nM; for `CC(C)C[C@H](CP(=O)(O)CNC(=O)OCc1ccccc1)C(=O)N[C@@H](CC(C)C)C(=O)O`: 11 nM.

The term Ki denotes the dissociation constant of the complex between target and ligand, obtained from inhibition or displacement. A high value points to a looser hold on the target.
